Measurements from patent US8318769B2, “Substituted sulfonamide compounds” (Gruenethal GmbH, priority 2008, dated 2012).
Structures can show the parent of a compound that is named as a salt. Where two headings read alike, the source gives them in different places.

Experiments:
[1] = target: T1, human bradykinin 1 receptor (B1R) (Homo sapiens, UniProt P46663); assay: FLIPR Ca2+ assay, B1R antagonism, human; assay type: cell-based; conditions: 10 μM test substance, CHO K1 cells with human B1R gene (hB1R cells), Lys-Des-Arg9-bradykinin at EC80, % inhibition compared with the maximum achievable inhibition; for inhibition at 10 µM: read-out: B1R antagonism, human [10 μM] % inhibition
T1 construct: expressed in transfected cells
T1 sequence (P46663 1-353): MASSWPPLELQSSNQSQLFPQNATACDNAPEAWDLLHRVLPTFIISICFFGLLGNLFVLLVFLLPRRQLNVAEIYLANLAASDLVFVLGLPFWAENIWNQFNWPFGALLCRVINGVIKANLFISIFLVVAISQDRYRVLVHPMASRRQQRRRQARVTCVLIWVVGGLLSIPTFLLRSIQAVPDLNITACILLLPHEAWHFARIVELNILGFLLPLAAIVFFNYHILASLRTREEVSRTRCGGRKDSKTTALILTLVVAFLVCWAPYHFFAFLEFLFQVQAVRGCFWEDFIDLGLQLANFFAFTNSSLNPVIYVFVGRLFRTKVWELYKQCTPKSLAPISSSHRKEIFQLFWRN
Method in brief: (§1)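 CHO K1 cells stably expressing human or rat B1R, loaded with Fluo-4 and read in FLIPR (ex 488, em 540 nm, peak fluorescence). Test compound 10 μM preincubated 10-20 min, then EC80 agonist added (Lys-Des-Arg9-bradykinin for human, Des-Arg9-bradykinin for rat); % inhibition relative to maximum achievable inhibition.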

[2] = target: T2, bradykinin 1 receptor (B1R) of the rat (Rattus norvegicus, UniProt P97583); assay: FLIPR Ca2+ assay, B1R antagonism, rat; assay type: cell-based
T2 construct: expressed in transfected cells
T2 sequence (P97583 1-337): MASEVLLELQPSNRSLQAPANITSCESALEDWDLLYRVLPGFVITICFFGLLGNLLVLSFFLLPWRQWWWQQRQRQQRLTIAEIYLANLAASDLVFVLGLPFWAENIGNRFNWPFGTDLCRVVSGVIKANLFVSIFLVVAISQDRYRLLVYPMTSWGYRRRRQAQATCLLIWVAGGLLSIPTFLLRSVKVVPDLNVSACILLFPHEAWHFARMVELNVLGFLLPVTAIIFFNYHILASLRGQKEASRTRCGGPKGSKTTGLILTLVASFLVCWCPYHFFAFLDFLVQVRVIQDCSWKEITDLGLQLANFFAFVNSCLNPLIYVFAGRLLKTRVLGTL
Method in brief: as §1

[3] = CHO-K1, 10 μM test substance, CHO K1 cells with rat B1R gene (rB1R cells), Des-Arg9-bradykinin at EC80, % inhibition compared with the maximum achievable inhibition, read-out: B1R antagonism, rat [10 μM] % inhibition

SMILES | inhibition at 10 µM [1] [%] | inhibition at 10 µM [2, 3] [%] | also measured
COc1cc(C)c(S(=O)(=O)N2CCCCC2CCCC(=O)N2CCC(OCCN3CCCC3)(c3ccncc3)CC2)c(C)c1 (centres unmarked) [Example 91, 4-[1-[(4-methoxy-2,6-dimethyl-phenyl)sulfonyl]-piperidin-2-yl]-1-[4-pyridin-4-yl-4-(2-pyrrolidin-1-yl-ethoxy)-piperidin-1-yl]-butan-1-one] |  |  | B1R antagonism, human [10 μM] % inhibition [1]: 100%; B1R antagonism, rat [10 μM] % inhibition ([2]; 10 μM test substance, CHO K1 cells with rat B1R gene (rB1R cells), Des-Arg9-bradykinin at EC80, % inhibition compared with the maximum achievable inhibition, 10 µM): 103%
O=C(CC1CCCCN1S(=O)(=O)c1cccc(C(F)(F)F)c1)N1CCC(OCCN2CCCCC2)(c2cccnc2)CC1 (centres unmarked) [Example 10, 1-(4-(2-(piperidin-1-yl)ethoxy)-4-(pyridin-3-yl)piperidin-1-yl)-2-(1-(3-(trifluoromethyl)phenylsulfonyl)piperidin-2-yl)ethanone] | 104 | 44 | 
COc1cc(C)c(S(=O)(=O)N(CCOCC(=O)N2CCC(OCCN3CCCC3)(c3cccnc3)CC2)c2ccccc2)c(C)c1 [Example 98, 4-methoxy-2,6-dimethyl-N-[2-[2-oxo-2-[4-pyridin-3-yl-4-(2-pyrrolidin-1-yl-ethoxy)-piperidin-1-yl]-ethoxy]-ethyl]-N-phenyl-benzenesulfonic acid amide] | 100 | 103 | 
COc1cc(C)c(S(=O)(=O)N(C)CCOCC(=O)N2CCC(OCCN3CCN(C)CC3)(c3cccnc3)CC2)c(C)c1 [Example 29, 4-methoxy-N,2,6-trimethyl-N-(2-(2-(4-(2-(4-methylpiperazin-1-yl)ethoxy)-4-(pyridin-3-yl)piperidin-1-yl)-2-oxoethoxy)ethyl)benzenesulfonamide] | 99 | 101 | 
COc1cc(C)c(S(=O)(=O)N2CCCCC2CCCC(=O)N2CCC(OCCN3CCCC3)(c3cccnc3)CC2)c(C)c1 (centres unmarked) [Example 87, 4-[1-[(4-methoxy-2,6-dimethyl-phenyl)sulfonyl]-piperidin-2-yl]-1-[4-pyridin-3-yl-4-(2-pyrrolidin-1-yl-ethoxy)-piperidin-1-yl]-butan-1-one] | 100 | 102 | 
COc1cc(C)c(S(=O)(=O)N2CCCCC2CCCC(=O)N2CCC(OCCN3CCCC3)(c3cccnc3)CC2)c(C)c1 (centres unmarked) [Example 2, 4-(1-(4-methoxy-2,6-dimethylphenylsulfonyl)piperidin-2-yl)-1-(4-(pyridin-3-yl)-4-(2-(pyrrolidin-1-yl)ethoxy)piperidin-1-yl)butan-1-one] |  |  | B1R antagonism, human [10 μM] % inhibition ([1]; 10 µM): 97%; inhibition at 10 µM ([2]; CHO-K1, read-out: B1R antagonism, rat [10 μM] % inhibition): 99%
COc1cc(C)c(S(=O)(=O)N(C)CCOCC(=O)N2CCC(OCCCN3CCCCC3)(c3cccnc3)CC2)c(C)c1 [Example 18, 4-methoxy-N,2,6-trimethyl-N-(2-(2-oxo-2-(4-(3-(piperidin-1-yl)propoxy)-4-(pyridin-3-yl)piperidin-1-yl)ethoxy)ethyl)benzenesulfonamide] | 102 | 103 | 
COc1cc(C)c(S(=O)(=O)N2c3ccccc3CCC2COCC(=O)N2CCC(OCCN3CCCC3)(c3cccc(F)c3)CC2)c(C)c1 (centres unmarked) [Example 102, 1-[4-(3-fluorophenyl)-4-(2-pyrrolidin-1-yl-ethoxy)-piperidin-1-yl]-2-[[1-[(4-methoxy-2,6-dimethyl-phenyl)sulfonyl]-1,2,3,4-tetrahydro-quinolin-2-yl]-methoxy]-ethanone] | 99 | 98 | 
Cc1cccc(Cl)c1S(=O)(=O)N1CCCCC1CCCC(=O)N1CCC(OCCN2CCCC2)(c2cccc(F)c2)CC1 (centres unmarked) [Example 85, 4-[1-[(2-chloro-6-methyl-phenyl)sulfonyl]-piperidin-2-yl]-1-[4-(3-fluorophenyl)-4-(2-pyrrolidin-1-yl-ethoxy)-piperidin-1-yl]-butan-1-one] | 100 | 98 | 
COc1cc(C)c(S(=O)(=O)N2c3ccccc3CCC2COCC(=O)N2CCC(OCCN3CCCC3)(c3cccnc3)CC2)c(C)c1 (centres unmarked) [Example 101, 2-[[1-[(4-methoxy-2,6-dimethyl-phenyl)sulfonyl]-1,2,3,4-tetrahydro-quinolin-2-yl]-methoxy]-1-[4-pyridin-3-yl-4-(2-pyrrolidin-1-yl-ethoxy)-piperidin-1-yl]-ethanone] | 100 | 102 | 

Further lines, with some results ahead:

inhibition at 10 µM [1] [%] | inhibition at 10 µM [2, 3] [%] | SMILES | also measured
98 | 103 | COc1cc(C)c(S(=O)(=O)N2CCCCC2COCC(=O)N2CCC(OCCCN3CCN(C)CC3)(c3cccnc3)CC2)c(C)c1 (centres unmarked) [Example 33, 2-((1-(4-methoxy-2,6-dimethylphenylsulfonyl)piperidin-2-yl)methoxy)-1-(4-(3-(4-methylpiperazin-1-yl)propoxy)-4-(pyridin-3-yl)piperidin-1-yl)ethanone] | 
103 | 102 | COc1cc(C)c(S(=O)(=O)N2CCCCC2COCC(=O)N2CCC(OCCN3CCCCC3)(c3cccnc3)CC2)c(C)c1 (centres unmarked) [Example 14, 2-((1-(4-methoxy-2,6-dimethylphenylsulfonyl)piperidin-2-yl)methoxy)-1-(4-(2-(piperidin-1-yl)ethoxy)-4-(pyridin-3-yl)piperidin-1-yl)ethanone] | 
85 | 93 | Cc1cc(S(=O)(=O)N2CCCCC2CCC(=O)N2CCC(OCCCN3CCN(C)CC3)(c3cccnc3)CC2)c(C)cc1Cl (centres unmarked) [Example 36, 3-(1-(4-chloro-2,5-dimethylphenylsulfonyl)piperidin-2-yl)-1-(4-(3-(4-methylpiperazin-1-yl)propoxy)-4-(pyridin-3-yl)piperidin-1-yl)propan-1-one] | 
97 | 102 | COc1cc(C)c(S(=O)(=O)N2CCCCC2COCC(=O)N2CCC(OCCN3CCN(C)CC3)(c3cccnc3)CC2)c(C)c1 (centres unmarked) [Example 28, 2-((1-(4-methoxy-2,6-dimethylphenylsulfonyl)piperidin-2-yl)methoxy)-1-(4-(2-(4-methylpiperazin-1-yl)ethoxy)-4-(pyridin-3-yl)piperidin-1-yl)ethanone] | 
100 | 101 | COc1cc(C)c(S(=O)(=O)N2CCCC[C@H]2COCC(=O)N2CCC(OCCN3CCC3)(c3cccnc3)CC2)c(C)c1 [Example 61, 1-[4-[2-(azetidin-1-yl)-ethoxy]-4-pyridin-3-yl-piperidin-1-yl]-2-[[(2S)-1-[(4-methoxy-2,6-dimethyl-phenyl)sulfonyl]-piperidin-2-yl]-methoxy]-ethanone] | 
99 | 100 | COc1cc(C)c(S(=O)(=O)N2CCCC[C@H]2COCC(=O)N2CCC(OCCN3CCCC3)(c3cccc(Cl)c3)CC2)c(C)c1 [Example 56, 1-[4-(3-chlorophenyl)-4-(2-pyrrolidin-1-yl-ethoxy)-piperidin-1-yl]-2-[[(2S)-1-[(4-methoxy-2,6-dimethyl-phenyl)sulfonyl]-piperidin-2-yl]-methoxy]-ethanone] | 
97 | 104 | COc1cc(C)c(S(=O)(=O)N2CCCC[C@H]2COCC(=O)N2CCC(COCCN3CCCC3)(c3cccnc3)CC2)c(C)c1 [Example 49, (S)-2-((1-(4-methoxy-2,6-dimethylphenylsulfonyl)piperidin-2-yl)methoxy)-1-(4-(pyridin-3-yl)-4-((2-(pyrrolidin-1-yl)ethoxy)methyl)piperidin-1-yl)ethanone] | 
100 | 102 | COc1cc(C)c(S(=O)(=O)N2CCCC[C@H]2COCC(=O)N2CCC(OCCN3CCCC3)(c3cccnc3)CC2)c(C)c1 [Example 46, (S)-2-((1-(4-methoxy-2,6-dimethylphenylsulfonyl)piperidin-2-yl)methoxy)-1-(4-(pyridin-3-yl)-4-(2-(pyrrolidin-1-yl)ethoxy)piperidin-1-yl)ethanone hydrochloride] | 
100 | 99 | COc1cc(C)c(S(=O)(=O)N2CCCCC2COCC(=O)N2CCC(OCCN3CCCC3)(c3cccc(F)c3)CC2)c(C)c1 (centres unmarked) [Example 83, 1-[4-(3-fluorophenyl)-4-(2-pyrrolidin-1-yl-ethoxy)-piperidin-1-yl]-2-[[1-[(4-methoxy-2,6-dimethyl-phenyl)sulfonyl]-piperidin-2-yl]-methoxy]-ethanone] | 
